Assay results from paper PMC11288129, “Diversely evolved xibalbin variants from remipede venom inhibit potassium channels and activate PKA-II and Erk1/2 signaling” (BMC Biology, 2024).
Positions of bridges follow the written chain, without caps; N, C: chain ends. No end group written: not given here.

How the values were obtained:
[1] = tested on: HMEC-1 human microvascular endothelial cells; experiment: Proliferation of HMEC-1 cells (crystal violet); format: cell-based; settings: 25 µg/ml
Experimental: We initially determined the cytotoxic effects of xibalbins on primary sensory neurons from adult male rats cultured in vitro [2]. […] We exposed overnight cultures of dissociated rat dorsal root ganglions (DRGs) to xibalbins for 5 and 30 min. Subsequently, all cells were fixed and immunocytochemically stained for the neuronal marker UCHL1 to identify neurons. The entire culture was digitally scanned using high content imaging (HCI) microscopy, and cell numbers, UCHL1 staining per cell, and cell size was analyzed. No loss of neurons was induced by either of the tested xibalbins, even at the highest concentration of 0.8 µg/µL (Additional File 3: Figure S2). […] We further investigated the potential toxicity of xibalbins in monocyte/macrophage-like cells (RAW264.7) and human microvascular endothelial cells (HMEC); see Additional File 5: Figure S4 The viability of RAW264.7 cells was detected using a formazan-based assay, while the proliferation of HMECs was assessed by measuring the number of crystal violet-stained cells.
Supplementary file 12915_2024_1955_MOESM5_ESM.jpg: Additional file 5: Figure S4. Effects of xibalbins on cytotoxicity in RAW264.7 macrophages and adhesion of leukocytes onto the vascular endothelium. […] Cells were incubated with WST-8 and the formed formazan was detected by absorbance measurements. […] The amount of DNA-bound crystal violet was detected by absorbance measurements. […]

rNav1.2 = experiment: TEVC inhibition, Nav1.2; format: cell-based, rat; settings: 1 µM, Xenopus oocytes, ND96, 18–22 °C, mean ± SEM, n ≥ 3
Excerpt: For the expression of Kv channels rat Kv1.1 (GenBank accession number: NM_173095 [88, 89]), rKv1.2 (NM_012970 [90, 91]), human Kv1.3 (NM_002232 [92, 93]), rKv1.4 (NM_012971 [94, 95]), rKv1.6 (NM_023954 [96, 97]), hKv2.1 (NM_004975 [98, 99]), hKv3.1 (NM_004976 [100, 101]), rKv4.2 (NM_031739 [102, 103]), hKv10.1 (NM_172362 [104, 105]), hERG1 [Kv11.1, (NM_000238 [106, 107])], and Shaker IR [from Drosophila melanogaster, (NM_167595 [108, 109])], Nav channels [rNav1.2 (NM_012647 [42, 110]), rNav1.4 (NM_013178 [111, 112]), hNav1.5 (NM_198056 [113, 114]), mNav1.6 (NM_001077499 [115, 116]), BgNav [from Blattella germanica, (DQ466887 [117, 118])] and the auxiliary subunits rβ1 (NM_001271045 [119, 120]), hβ1 (NM_001037 [121, 122]), and TipE [from D. melanogaster, (NM_079196 [109, 123])], and Cav channels hCav3.1 [124, 125], hCav3.2 [126, 127], and hCav3.3 [128, 129] in Xenopus oocytes, the linearized plasmids were transcribed using the T7 or SP6 mMESSAGEmMACHINE transcription kit (Ambion, Austin, TX, USA). […]
Whole-cell currents of oocytes were recorded 1 to 3 days after injection. […] The current–voltage (IV) relationships were determined by 100-ms step depolarizations between − 90 and + 40 mV, using 5 mV increments. […]

KRSCIRRFGRCDHRPNDCCYNSSCRCNLWGSNCRCQRMGLFQKWGK (disulfide 4-19, 11-24, 18-35, 26-33) [xib13]
Prolif. HMEC-1 [1]: 91.3 | inhibition of Nav1.2 (rNav1.2): 15.6 ± 2.6%
